Each structure is given as a SMILES string. Bounds are passed on as bounds.

Format in all cases: in vivo
The subject of test [1] is Chilo suppressalis. Put plainly: Example B1: Chilo suppressalis (striped rice stemborer), artificial diet, L2 larvae. The conditions noted are these: 144 h, application rate of 200 ppm, 6 days after infestation, read-out: control in at least one of the three categories (mortality, anti-feedant effect, or growth inhibition). On the procedure:
24-well microtiter plates with artificial diet were treated with aqueous test solutions prepared from 10,000 ppm DMSO stock solutions by pipetting. After drying, the plates were infested with L2 larvae (6-8 per well). The samples were assessed for mortality, anti-feeding effect, and growth inhibition in comparison to untreated samples 6 days after infestation. Control of Chilo suppressalis by a test sample is given when at least one of the categories mortality, anti-feedant effect, and growth inhibition is higher than the untreated sample.

Test [2] relates to Spodoptera littoralis. Put plainly: Example B5: Spodoptera littoralis (Egyptian cotton leaf worm), cotton leaf discs, L1 larvae. The conditions noted are these: foliar, 72 h, application rate of 200 ppm, 3 days after infestation, read-out: control in at least one of the three categories (mortality, anti-feedant effect, or growth inhibition). A digest of the protocol: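 Cotton leaf discs on agar sprayed with aqueous dilutions of 10,000 ppm DMSO stocks, dried, then infested with five L1 larvae. Mortality, anti-feeding and growth inhibition scored against untreated discs 3 days after infestation. Control recorded when any one category exceeds the untreated sample.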

In test [3] the test system is Myzus persicae. Put plainly: Example B9: Myzus persicae (green peach aphid) feeding/contact activity, sunflower leaf discs. The conditions noted are these: foliar, 144 h, application rate of 200 ppm, 6 days after infestation. On the procedure: Sunflower leaf discs were placed onto agar in a 24-well microtiter plate and sprayed with aqueous test solutions prepared from 10,000 ppm DMSO stock solutions. After drying, the leaf discs were infested with an aphid population of mixed ages. The samples were assessed for mortality 6 days after infestation.

Test [4] deals with Diabrotica balteata. Put plainly: Example B2: Diabrotica balteata (corn root worm), maize sprouts, L2 larvae. As to conditions: for percent control (mortality or growth inhibition) at 200 ppm: Diabrotica balteata, 96 h, application rate of 200 ppm, 4 days after infestation, read-out: control in at least one of the two categories (mortality or growth inhibition). Here is the method: Maize sprouts placed onto an agar layer in 24-well microtiter plates were treated with aqueous test solutions prepared from 10,000 ppm DMSO stock solutions by spraying. After drying, the plates were infested with L2 larvae (6 to 10 per well). The samples were assessed for mortality and growth inhibition in comparison to untreated samples 4 days after infestation.

In test [5] the test system is Plutella xylostella. Put plainly: Example B4: Plutella xylostella (diamond back moth), artificial diet, eggs. The conditions noted are these: Plutella xylostella, 192 h; application rate of 200 ppm; 8 days after infestation; read-out: control in at least one of the two categories (mortality or growth inhibition). Here is the method:
24-well microtiter plates with artificial diet were treated with aqueous test solutions prepared from 10′000 ppm DMSO stock solutions by pipetting. After drying, Plutella eggs were pipetted through a plastic stencil onto a gel blotting paper and the plate was closed with it. The samples were assessed for mortality and growth inhibition in comparison to untreated samples 8 days after infestation.

The subject of test [6] is Myzus persicae. Put plainly: Example B3: Myzus persicae (green peach aphid) intrinsic activity. The conditions noted are these: 120 h, test rate of 12 ppm, 5 days after infestation. On the procedure:
Test compounds prepared from 10′000 ppm DMSO stock solutions were applied by pipette into 24-well microtiter plates and mixed with sucrose solution. The plates were closed with a stretched Parafilm. A plastic stencil with 24 holes was placed onto the plate and infested pea seedlings were placed directly on the Parafilm. The infested plate was closed with a gel blotting paper and another plastic stencil and then turned upside down. The samples were assessed for mortality 5 days after infestation.

Test [7] has as its system Spodoptera littoralis. Put plainly: Example B6: Spodoptera littoralis, uptake by lettuce roots from agar. As to conditions: 144 h, test rate of 12.5 ppm, 6 days after infestation, read-out: effect in at least one of the three categories (mortality, anti-feeding, or growth inhibition). From the text:
Test compounds were applied by pipette from 10,000 ppm DMSO stock solutions into 24-well plates and mixed with agar. Lettuce seeds were placed onto the agar and the multi well plate was closed by another plate which contained also agar. After 7 days the compound was absorbed by the roots and the lettuce grew into the lid plate. The lettuce leaves were then cut off into the lid plate. Spodoptera eggs were pipetted through a plastic stencil onto a humid gel blotting paper and the lid plate was closed with it. The samples were assessed for mortality, anti-feedant effect and growth inhibition in comparison to untreated samples 6 days after infestation.

In test [8] the test system is Plutella xylostella. Put plainly: Example B8: Plutella xylostella (diamondback moth), 96-well artificial diet. As to conditions: 216 h, application rate of 500 ppm, 9 days after infestation. On the procedure: 96-well microtiter plates containing artificial diet were treated with aqueous test solutions, prepared from 10,000 ppm DMSO stock solutions, by a liquid handling robot. After drying, eggs (˜30 per well) were infested onto a netted lid which was suspended above the diet. The eggs hatch and L1 larvae move down to the diet. The samples were assessed for mortality 9 days after infestation.

Test [9] has as its system Myzus persicae. Put plainly: Example B7: Myzus persicae (green peach aphid), 96-well sucrose solution. The conditions noted are these: 120 h, application rate of 50 ppm, 5 days after infestation. Here is the method: Test compounds prepared from 10′000 ppm DMSO stock solutions were applied by a liquid handling robot into 96-well microtiter plates and mixed with a sucrose solution. Parafilm was stretched over the 96-well microtiter plate and a plastic stencil with 96 holes was placed onto the plate. Aphids were sieved into the wells directly onto the Parafilm. The infested plates were closed with a gel blotting card and a second plastic stencil and then turned upside down. The samples were assessed for mortality 5 days after infestation.

Consider `CC(NC(=O)c1cc(Cl)nc(C(F)(F)F)c1)c1nccnc1-c1cnccn1` (stereo not shown) [Compound P14, 2-chloro-N-[1-(3-pyrazin-2-ylpyrazin-2-yl)ethyl]-6-(trifluoromethyl)pyridine-4-carboxamide], for which the percent control (mortality, anti-feedant effect or growth inhibition) at 200 ppm in test [1] and in test [2] was no less than 80% each time. Moreover, the mortality at 200 ppm in [3] was no less than 80%. Besides, the percent control (mortality or growth inhibition) at 200 ppm in test [4] and in test [5] was no less than 80% in each case.

On to `CC(NC(=O)c1cc(Br)cc(C(F)(F)F)c1)c1nccnc1-c1cnccn1` (stereo not shown) [Compound P7, 3-bromo-N-[1-(3-pyrazin-2-ylpyrazin-2-yl)ethyl]-5-(trifluoromethyl)benzamide], for which the percent control (mortality, anti-feedant effect or growth inhibition) at 200 ppm in [1] and in [2] was no less than 80% in each case. This compound had a mortality at 200 ppm in [3] of no less than 80%. Besides, the percent control (mortality or growth inhibition) at 200 ppm in test [4] and in test [5] was no less than 80% throughout.

For `CC(NC(=O)c1cc(C(F)(F)F)cc(C2(C#N)CC2)c1)c1nccnc1-c1cnccn1` (stereo not shown) [Compound P21], the percent control (mortality, anti-feedant effect or growth inhibition) at 200 ppm in test [1] and in test [2] was no less than 80% throughout. This compound gave a mortality at 200 ppm in [3] of no less than 80%. In test [4] (Concentration 50 ppm, Diabrotica balteata (Example B32)), this compound yielded a mortality at 50 ppm of 100%. In addition, the percent control (mortality or growth inhibition) at 200 ppm in [4] and in test [5] was no less than 80% in each case. In test [6], the mortality at 12 ppm is no less than 80%.

In the case of `C[C@H](NC(=O)c1cc(C(F)(F)F)cc(C(F)(F)F)c1)c1nccnc1-c1cnccn1` [Compound E3, N-[(1S)-1-(3-pyrazin-2-ylpyrazin-2-yl)ethyl]-3,5-bis(trifluoromethyl)benzamide], the percent control (mortality, anti-feedant effect or growth inhibition) at 200 ppm in test [1] and in test [2] was no less than 80% throughout. In addition, the percent effect (mortality, anti-feeding or growth inhibition) at 12.5 ppm in test [7] is no less than 80%. The compound also registered a mortality at 500 ppm in test [8] of no less than 80%. The percent control (mortality or growth inhibition) at 200 ppm in test [4] and in [5] was no less than 80% throughout. The compound further showed a mortality at 12 ppm in test [6] of no less than 80%. In test [9], this compound yielded a mortality at 50 ppm of no less than 80%.

The values are drawn from patent US20240287047A1, “PESTICIDALLY ACTIVE DIAZINE-AMIDE COMPOUNDS” (SYNGENTA CROP PROTECTION AG, priority 2021, published 2024).
